The text below walks through data of ChEMBL document CHEMBL1201862, “PubChem BioAssay data set” (2004).

Test systems include A549; ACHN; DLD-1; HCT-15; KM12; Malme-3M; NCI-H460; OVCAR-5; OVCAR-8; RXF 393; SK-MEL-28; SK-MEL-5; SW-620; U-251; UACC-62; K562; OVCAR-4; Hs-578T; MCF7; MDA-MB-231.
Holding throughout (assay): DTP human tumour cell line panel, 48 h

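Cells were grown in 96-well plates and exposed to each compound for 48 hours at five concentrations; endpoints were interpolated linearly between bracketing concentrations, or set to the highest concentration if not reached. GI50: concentration for 50% inhibition of growth.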 The source made the active and inactive calls. Cut-off read from the data, not from the text of the source: active = GI50 up to about 1.1 µM and inactive = higher. Bounds are passed on as bounds.

The term GI50 denotes the concentration that inhibits growth by half. `CCOC(=O)C(NO)C(Sc1ccccc1)c1ccc(OC)cc1` (centres undefined): the GI50 in the assay on A549 is 38.6 µM (inactive); in the assay with ACHN, 71.3 µM (inactive); with DLD-1, 72.9 µM (inactive); in the assay with HCT-15, 68.9 µM; in the assay on KM12, 78.5 µM (inactive); with Malme-3M, > 100 µM (inactive). The GI50 is 44.4 µM (inactive) in the assay on NCI-H460; > 100 µM (inactive) in the assay on OVCAR-5; > 100 µM (inactive) in the assay with OVCAR-8; 23.9 µM (inactive) in the assay with RXF 393; > 100 µM (inactive) in the assay on SK-MEL-28; 30.7 µM (inactive) in the assay on SK-MEL-5. Further, the GI50 with SW-620 was > 100 µM (inactive); in the assay with U-251 it was > 100 µM (inactive); with UACC-62 it was 37.6 µM (inactive).

On to `COC(=O)C1=C(C(=O)OC)C2(C)OC1C(=O)C21CC1` (centres undefined), for which the GI50 in the assay on A549 was > 100 µM (inactive); with ACHN, 19.3 µM (inactive); in the assay on DLD-1, 19.1 µM (inactive); in the assay on HCT-15, 19.7 µM; in the assay with K562, 19.8 µM (inactive); in the assay on KM12, 30.5 µM (inactive). The GI50 is 23.9 µM (inactive) in the assay on Malme-3M; 24.9 µM (inactive) in the assay with NCI-H460; 10.6 µM (inactive) in the assay with OVCAR-4; > 100 µM (inactive) in the assay with OVCAR-5; 24 µM (inactive) in the assay with OVCAR-8; 16.8 µM (inactive) with RXF 393. Also, the results for the GI50 in the assay on SK-MEL-5, in the assay with SW-620 and in the assay on U-251 were > 100 µM (inactive), 19.5 µM (inactive) and > 100 µM (inactive), respectively.

As for `COc1ccc(N2C(=O)/C(=C/c3ccc(N(CCC#N)CCC#N)cc3C)N=C2/C=C\c2ccccc2)cc1`, the GI50 was 53 µM (inactive) in the assay with A549; 18.6 µM (inactive) in the assay on ACHN; > 100 µM (inactive) in the assay on DLD-1; 5.69 µM in the assay with HCT-15; 40.1 µM (inactive) with K562; 28.1 µM (inactive) in the assay with KM12. Further, the GI50 is 41.6 µM (inactive) in the assay on Malme-3M; 33.4 µM (inactive) in the assay with NCI-H460; 47 µM (inactive) in the assay on OVCAR-4; > 100 µM (inactive) in the assay with OVCAR-5; 42.7 µM (inactive) with OVCAR-8; 31.4 µM (inactive) with SK-MEL-28. Moreover, the GI50 with SK-MEL-5 was 31.9 µM (inactive); with SW-620 it was 33.2 µM (inactive); in the assay with U-251, 46.8 µM (inactive); in the assay with UACC-62 it was 5.24 µM (inactive).

Turning to `O=C(Cc1nc2ccccc2s1)C(=O)Nc1ccc(Cl)cc1Cl`, the GI50 with A549 was > 100 µM (inactive); in the assay on ACHN, > 100 µM (inactive); in the assay on DLD-1 it was > 100 µM (inactive); in the assay with HCT-15, above 100 µM; in the assay on K562 it was > 100 µM (inactive); in the assay on KM12, > 100 µM (inactive). In addition, the GI50 in the assay on Malme-3M, with NCI-H460, with OVCAR-4, in the assay on OVCAR-5, in the assay on OVCAR-8 and with SK-MEL-28 was > 100 µM (inactive) each time. Further, the GI50 in the assay with SW-620 and in the assay on U-251 was > 100 µM (inactive) in each case.

For the compound `COc1cc(C2(C)SCCCS2)c(I)c(OC)c1OC`, the GI50 with A549 was > 100 µM (inactive); in the assay on ACHN, > 100 µM (inactive); in the assay with DLD-1 it was > 100 µM (inactive); with HCT-15, above 100 µM; in the assay on K562 it was 87.5 µM (inactive); in the assay on KM12, > 100 µM (inactive). Moreover, the GI50 in the assay on Malme-3M, in the assay on NCI-H460, in the assay on OVCAR-4, in the assay with OVCAR-5, with OVCAR-8 and in the assay with SK-MEL-28 was > 100 µM (inactive) in each case. In addition, the GI50 in the assay with SK-MEL-5, in the assay on SW-620, in the assay on U-251 and in the assay on UACC-62 was > 100 µM (inactive) throughout.

For `CC(=O)OC1CC2C(C)(C)C(=O)C=C[C@]2(C)C2CCC3(C)C(c4ccoc4)C(=O)C4OC43[C@]12C` (some centres undefined), the GI50 was 16.7 µM (inactive) with A549; 24.2 µM (inactive) with ACHN; 16.5 µM (inactive) in the assay on DLD-1; 14.4 µM with HCT-15; 13.1 µM (inactive) with K562; 15.1 µM (inactive) with KM12. For the same compound, the GI50 in the assay on Malme-3M is 15.2 µM (inactive); with NCI-H460, 17.1 µM (inactive); in the assay on OVCAR-4, 15.1 µM (inactive); with OVCAR-5 it was 29.4 µM (inactive); in the assay on OVCAR-8 it was 20.8 µM (inactive); in the assay with SK-MEL-28, 16.9 µM (inactive). The GI50 in the assay with SK-MEL-5 was 15.7 µM (inactive); in the assay with SW-620, 19.5 µM (inactive); in the assay with U-251, 18.8 µM (inactive); in the assay with UACC-62, 14.2 µM (inactive).

Regarding `C=C[C@@]12CCCCC1C/C(=C(/O)OC)C(=O)C2` (some centres undefined), the GI50 with A549, in the assay on ACHN, in the assay on DLD-1, in the assay with K562, in the assay with KM12 and in the assay with NCI-H460 was > 100 µM (inactive) in each case. Moreover, the GI50 in the assay with OVCAR-4, in the assay with OVCAR-5, with OVCAR-8, in the assay on RXF 393, in the assay on SK-MEL-28 and in the assay on SK-MEL-5 was > 100 µM (inactive) in each case. For the same compound, the GI50 in the assay with SW-620, in the assay on U-251 and in the assay with UACC-62 was > 100 µM (inactive) in each case.

In the case of `Cc1ccc(C(O)(c2ccc(C)cc2)c2ccccn2)cc1`, the GI50 in the assay with A549 is 64.6 µM (inactive); in the assay with ACHN, > 100 µM (inactive); with DLD-1, > 100 µM (inactive); in the assay on HCT-15 it was above 100 µM; with K562, 71.6 µM (inactive); in the assay with KM12, > 10 µM (inactive). Moreover, the GI50 in the assay on Malme-3M, in the assay on NCI-H460, in the assay with OVCAR-4, with OVCAR-5, with OVCAR-8 and in the assay on SK-MEL-28 was > 100 µM (inactive) each time. Also, the GI50 in the assay on SK-MEL-5, with SW-620, in the assay with U-251 and with UACC-62 was > 100 µM (inactive) throughout.

`c1ncc(C23C4C5C6C4C2C6C53)[nH]1` (centres undefined): the GI50 in the assay with A549 was > 100 µM (inactive); with ACHN, > 100 µM (inactive); in the assay with HCT-15 it was above 100 µM; in the assay with Hs-578T, > 100 µM (inactive); in the assay on K562 it was > 100 µM (inactive); in the assay on KM12, > 100 µM (inactive). Besides, the GI50 in the assay on MCF7, with MDA-MB-231, in the assay on Malme-3M, in the assay on NCI-H460, in the assay on OVCAR-4 and in the assay on OVCAR-5 was > 100 µM (inactive) throughout. In addition, the GI50 in the assay on OVCAR-8, with RXF 393, with SK-MEL-28, in the assay with SK-MEL-5, in the assay on SW-620 and with U-251 was > 100 µM (inactive) throughout. Also, the GI50 with UACC-62 was > 100 µM (inactive).

In the case of `COc1cc(N)c2[nH]c3c(C)ccc(C)c3c2c1`, the GI50 with A549 is > 100 µM (inactive); in the assay on ACHN, > 100 µM (inactive); with DLD-1, > 100 µM (inactive); in the assay with HCT-15, above 100 µM; in the assay on K562, > 100 µM (inactive); in the assay with KM12, > 100 µM (inactive). For the same compound, the GI50 in the assay on Malme-3M, with NCI-H460, with OVCAR-4, in the assay with OVCAR-5, in the assay with OVCAR-8 and in the assay on SK-MEL-28 was > 100 µM (inactive) in each case. Also, the GI50 in the assay with SK-MEL-5 and with SW-620 was > 100 µM (inactive) each time.

Turning to `CN1CCc2c([nH]c3ccccc23)C1`, the GI50 is > 100 µM (inactive) in the assay on A549; > 100 µM (inactive) with ACHN; above 100 µM in the assay on HCT-15; > 100 µM (inactive) in the assay on Hs-578T; > 100 µM (inactive) in the assay with K562; > 100 µM (inactive) in the assay on KM12. In addition, the GI50 was > 100 µM (inactive) in the assay with MCF7; > 100 µM (inactive) in the assay with MDA-MB-231; 29.4 µM (inactive) in the assay with Malme-3M; > 100 µM (inactive) in the assay on NCI-H460; > 100 µM (inactive) in the assay on OVCAR-4; > 100 µM (inactive) with OVCAR-5. Further, the GI50 with OVCAR-8, in the assay with RXF 393, with SK-MEL-28, in the assay on SK-MEL-5, in the assay on SW-620 and with U-251 was > 100 µM (inactive) throughout. The GI50 in the assay on UACC-62 was > 100 µM (inactive).

With `O=C(O)c1ccccc1C(=O)Nc1cc2c(cc1Br)-c1ccccc1C2=O`, the GI50 in the assay on A549 is > 100 µM (inactive); in the assay with ACHN it was > 100 µM (inactive); in the assay on HCT-15 it was above 100 µM; in the assay with Hs-578T it was 91.2 µM (inactive); in the assay on K562 it was > 100 µM (inactive); in the assay with KM12 it was > 100 µM (inactive). In addition, the GI50 in the assay with MCF7, with MDA-MB-231, in the assay with Malme-3M, in the assay on NCI-H460, in the assay with OVCAR-4 and with OVCAR-5 was > 100 µM (inactive) in each case. Moreover, the GI50 in the assay with OVCAR-8 was > 100 µM (inactive); in the assay on RXF 393, 48 µM (inactive); with SK-MEL-28 it was 6.61 µM (inactive); in the assay on SK-MEL-5, > 100 µM (inactive); in the assay with SW-620, > 100 µM (inactive); with U-251, 87.5 µM (inactive). Further, the GI50 with UACC-62 was > 100 µM (inactive).
